Reference: patent publication US9820989B2, “Method of treating conditions with kinase inhibitors” (Allergan, Inc., priority 2012, dated 2017)
pIC50: −log10 of the molar value.

Target: PDGFRβ kinase (Homo sapiens (Human), UniProt P09619)
Experiment: PDGFRβ Kinase Assay (biochemical, poly-Glu-Tyr ELISA)
Conditions: purified cytoplasmic domain PDGFR-b protein, 36 μM ATP
Method: Biochemical PDGFRβ kinase assays were performed in 96 well microliter plates that were coated overnight with 75 μg of poly-Glu-Tyr (4:1) in 10 mM Phosphate Buffered Saline (PBS), pH 7.4. The coated plates were washed with 2 mls per well PBS+0.05% Tween-20 (PBS-T), blocked by incubation with PBS containing 1% BSA, then washed with 2 mls per well PBS-T prior to starting the reaction. Reactions were carried out in 100 μL reaction volumes containing 36 μM ATP in kinase buffer (50 mM Hepes buffer pH 7.4, 20 mM MgCl2, 0.1 mM MnCl2 and 0.2 mM Na3VO4). Test compounds were reconstituted in 100% DMSO and added to the reaction to give a final DMSO concentration of 5%. Reactions were initiated by the addition 20 ul per well of kinase buffer containing 200-300 ng purified cytoplasmic domain PDGFR-b protein (Millipore). […] The reaction was terminated by the addition of 100 μl of 2.5N H2SO4 to each well and read using a microplate ELISA reader set at 492 nm. IC50 values for compound inhibition were calculated directly from graphs of optical density (arbitrary units) versus compound concentration following subtraction of blank values.
IC50 values for test compounds were calculated from % inhibition of PDGF-BB stimulated responses in the absence of inhibitor.

PDGFRβ kinase, sequence (P09619 554-1106): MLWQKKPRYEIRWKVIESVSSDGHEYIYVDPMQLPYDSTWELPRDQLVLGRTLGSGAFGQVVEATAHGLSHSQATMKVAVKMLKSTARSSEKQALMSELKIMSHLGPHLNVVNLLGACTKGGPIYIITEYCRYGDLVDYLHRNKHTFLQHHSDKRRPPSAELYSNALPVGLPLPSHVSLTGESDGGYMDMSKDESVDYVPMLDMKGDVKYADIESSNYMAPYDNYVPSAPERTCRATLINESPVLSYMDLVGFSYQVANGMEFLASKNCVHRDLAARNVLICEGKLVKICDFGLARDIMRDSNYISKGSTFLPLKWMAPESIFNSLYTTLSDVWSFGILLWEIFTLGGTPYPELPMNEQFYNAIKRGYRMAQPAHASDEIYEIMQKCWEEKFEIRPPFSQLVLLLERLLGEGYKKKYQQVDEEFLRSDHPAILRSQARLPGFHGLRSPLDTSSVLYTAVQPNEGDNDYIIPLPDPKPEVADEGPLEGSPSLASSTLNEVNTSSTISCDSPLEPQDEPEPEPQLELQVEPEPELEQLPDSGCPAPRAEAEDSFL

With `CC(C)c1ccc(NC(=O)c2cc(N3Cc4cnc(N)nc4C3)ccn2)cc1` [Example 83, 4-(2-amino-5,7-dihydro-6H-pyrrolo[3,4-d]pyrimidin-6-yl)-N-(4-isopropylphenyl)pyridine-2-carboxamide] the pIC50 was less than 5.00.
